From article PMC8314276, “A Commercial Extract of Cyanotis arachnoidea Roots as a Source of Unusual Ecdysteroid Derivatives with Insect Hormone Receptor Binding Activity” (Journal of Natural Products, 2021)
Values joined by “and” are separate entries in the source; they are usually repeats but may differ in a detail not shown here. Equal entries are not always repeated. Where two headings read alike, the source gives them in different places.

Assays:
[1] = biological target: T1, insect ecdysteroid receptor (EcR) (Spodoptera frugiperda, UniProt Q8MWR2); test: EcR binding assay ([3H]PonA displacement in Sf-9 cells); conditions: for IC50: inhibition of [3H]PonA binding; for inhibition at 25 µM: read-out: inh% at 25 μM; for EcR binding activity in words: [3H]PonA binding; for EcR binding potency/affinity relative to 20E: fold higher than 20E
T1 construct: To an Sf-9 cell suspension (400 μL; (2.0–3.0) × 10^6 cells/mL) in a disposable culture tube; endogenous in cells; host or cells: Sf-9 cells
T1 sequence (Q8MWR2 1-403): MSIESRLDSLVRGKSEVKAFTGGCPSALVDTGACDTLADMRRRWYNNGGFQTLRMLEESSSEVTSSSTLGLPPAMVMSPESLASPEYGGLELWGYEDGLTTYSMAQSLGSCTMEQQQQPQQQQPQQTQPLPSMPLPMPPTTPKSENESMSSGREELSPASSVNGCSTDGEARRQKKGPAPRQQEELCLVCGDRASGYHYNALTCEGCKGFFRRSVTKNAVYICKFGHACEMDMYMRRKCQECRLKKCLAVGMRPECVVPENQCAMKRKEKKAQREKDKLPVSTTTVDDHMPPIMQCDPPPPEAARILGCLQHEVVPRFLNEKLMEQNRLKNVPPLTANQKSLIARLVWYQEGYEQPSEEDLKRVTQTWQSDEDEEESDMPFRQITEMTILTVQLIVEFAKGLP
Experimental: Tritiated PonA ([^3H]PonA; 3.5 TBq/mmol) was custom synthesized by American Radiolabeled Chemicals, Inc. (St. Louis, MO, USA). A stock solution of [^3H]PonA (30 000 dpm/μL, ∼0.1 μM) was prepared in 70% aqueous EtOH. Cold PonA and 20E were obtained from Enzo Biochem Inc. (New York, NY, USA) and Sigma-Aldrich Co. (St. Louis, MO, USA), respectively. Tebufenozide was obtained from stock samples. All test compounds were dissolved in DMSO. An Sf-9 cell line was cultured in EX-CELL 420 medium (SAFC Biosciences, Inc., Lenexa, KS, USA) supplemented with 10% fetal bovine serum.
The binding assay was performed as described previously with some modifications.[43],[44] To an Sf-9 cell suspension (400 μL; (2.0–3.0) × 10^6 cells/mL) in a disposable culture tube (12 mm × 75 mm) was added a test compound solution (1 μL), followed by a [^3H]PonA solution (2 μL, 60 000 dpm). After incubation at 25 °C for 30 min, the cell suspension was diluted with water (3 mL) and filtered through a glass fiber filter GF/B (25 mm; Whatman plc, Maidstone, UK). The filter was washed with water (2 × 3 mL), dried, and transferred to a glass vial. To the vial were added 3 mL of Insta-Gel Plus (PerkinElmer Inc., Waltham, MA, USA), and the radioactivity was measured with an LSC-8000 counter (Aloka, Tokyo, Japan). DMSO and PonA (final concentration: 2.7 μM) were used to determine the total and nonspecific binding, respectively. The test compounds were first screened at 25 μM, and the compounds with an inhibition rate of ≥50% were subjected to concentration–response experiments. The 50% inhibition concentration for [^3H]PonA binding [IC50 (M)] was determined using probit analysis,[45] and the logarithm of its reciprocal, pIC50, was used as the index of the binding affinity.

EcR = biological target: T2, EcR (Spodoptera frugiperda, UniProt Q8MWR2); test: Reporter gene assay (hsp27 ecdysone response element/firefly luciferase) in Sf-9 cells; format: cell-based, insect; conditions: for agonistic activity in reporter gene assay at 0.1 μM / agonistic activity in reporter gene assay at 1 μM: Sf-9 cells, luciferase reporter; for agonist/antagonist classification: binding assay combined with reporter gene assay
T2 sequence (Q8MWR2 1-403): T1 sequence (Q8MWR2 1-403)
Experimental: The reporter gene assay was performed in Sf-9 cells according to a previously reported method.[46] Briefly, a reporter plasmid was constructed from pBmbA/hsp27/firefly luciferase (hsp27/Fluc), in which seven repeats of hsp27 ecdysone response element were inserted. This plasmid was a kind gift from Dr. Luc Swevers (Institute of Biosciences & Applications, National Center for Scientific Research “Demokritos”, Athens, Greece). The plasmid was amplified in Escherichia coli and purified using a QIAGEN plasmid midi kit (QIAGEN GmbH, Hilden, Germany). A cell suspension (approximately 2.0 × 10^6 cells/mL; 400 μL) was added to each well of a 24-well plate, and it was incubated for 1 h. Then, 200 μL of a mixture of plasmids and TransFast transfection reagent (Promega; Madison, WI, USA) was added to each well. After incubating for 24 h, 6 μL of a solution of test compound (1% v/v) was added and incubated. After 48 h, the medium in each well was removed with a pipet. Cells were lysed by adding 100 μL/well of Passive Lysis Buffer and incubating for 15 min at 25 °C. The lysate (20 μL) was transferred to a 96-well microplate for the luciferase assay. Chemical luminescence was measured using a 96-microplate GLOMAX luminometer (Promega), according to the manufacturer’s instructions.

[2] = pIC50 (M), ecdysteroid receptor binding affinity, Sf-9 cell suspension, 25 °C, 30 min, probit analysis

Row | Structure (SMILES) | IC50 [1, 2] [M] | inhibition at 25 µM [1] [%] | EcR binding activity in words ([1]; Sf-9 cells) | agonistic activity in reporter gene assay at 0.1 μM (EcR) | further results
1 | CC(C)(O)CC[C@@H](O)[C@](C)(O)[C@H]1CC[C@@]2(O)C3=CC(=O)[C@@H]4C[C@@H](O)[C@@H](O)C[C@]4(C)[C@H]3CC[C@]12C [20E, 20-hydroxyecdysone, reference compound] | – | – | – | – | IC50 ([1]; Sf-9 cell suspension, 25 °C, 30 min, probit analysis, read-out: pIC50 (M), ecdysteroid receptor binding affinity (converted)): 1.66e-07 M
2 | CC(C)(O)CC[C@@H](O)[C@](C)(O)[C@H]1CC[C@@H]2C3=C(CC[C@@]21C)[C@@]1(C)C[C@H](O)[C@H](O)CC1=C(O)C3=O [Compound 4, 14β-14,15-Dihydrocalonysterone] | ~2.51e-05 | 49.8 | – | – | –
3 | CC(C)CC[C@@H](O)[C@](C)(O)[C@H]1CC[C@H]2C3=CC(=O)[C@@H]4C[C@@H](O)[C@@H](O)C[C@]4(C)C3=CC[C@]12C [Compound 5, 14-Deoxydacryhainansterone] | – | – | strong | agonists | IC50 ([1]; IC50, EcR binding, Sf-9 cells): 4.17e-08 M and 4.2e-08 M; EcR binding potency/affinity relative to 20E [1]: approximately 4 times
4 | CC(C)CCC(=O)[C@](C)(O)[C@H]1CC[C@@]2(O)C3=CC(=O)[C@@H]4C[C@@H](O)[C@@H](O)C[C@]4(C)C3=CC[C@]12C [Compound 6, 22-Oxodacryhainansterone] | – | – | moderate | did not show agonistic activity | IC50 ([1]; IC50, EcR binding, Sf-9 cells): 3.8e-07 M; agonistic activity in reporter gene assay at 1 μM (EcR): agonists
5 | CC(C)(O)CC[C@@H](O)[C@](C)(O)[C@H]1CC[C@H]2C3=CC(=O)[C@@H]4C[C@@H](O)[C@@H](O)C[C@]4(C)C3=CC[C@]12C [Compound 7, 14-Deoxy-25-hydroxydacryhainansterone] | 4.79e-07 | – | moderate | did not show agonistic activity | agonistic activity in reporter gene assay at 1 μM (EcR): agonists
6 | CC(C)(O)CC[C@@H](O)[C@](C)(O)[C@H]1CC[C@H]2C3=CC(=O)[C@@H]4C[C@@H](O)[C@@H](O)C[C@]4(C)[C@H]3CC[C@]12C [Compound 8, 14-Deoxy-20-hydroxyecdysone] | 6.92e-08 | – | – | agonists | EcR binding potency/affinity relative to 20E [1]: 2.4 times
7 | CC(C)(O)CC[C@@H](O)[C@](C)(O)[C@H]1CC[C@H]2C3=CC(=O)[C@H]4C[C@@H](O)[C@@H](O)C[C@]4(C)[C@H]3CC[C@]12C [Compound 9, 5α-14-Deoxy-20-hydroxyecdysone] | > 2.51e-05 | 0.93 | very weak activity | – | –
8 | CC(C)(O)CC[C@@H](O)[C@](C)(O)[C@H]1CC[C@@H]2C3=CC(=O)[C@@H]4C[C@@H](O)[C@@H](O)C[C@]4(C)[C@H]3CC[C@@]21C [Compound 10, 14β-14-Deoxy-20-hydroxyecdysone] | > 2.51e-05 | 18.2 | – | – | –
9 | CC(C)(O)CC[C@@H](O)[C@](C)(O)[C@H]1CC=C2C3=C(CC[C@@]21C)[C@@]1(C)C[C@H](O)[C@H](O)CC1=C(O)C3=O [Compound 11, calonysterone] | > 2.51e-05 | 0 | – | – | –
10 | CC(C)CC[C@@H](O)[C@](C)(O)[C@H]1CC[C@@]2(O)C3=CC(=O)[C@@H]4C[C@@H](O)[C@@H](O)C[C@]4(C)C3=CC[C@]12C [Compound 12, dacryhainansterone] | 2.29e-08 | – | strong | agonists | –
11 | CC1(C)CC[C@H]([C@](C)(O)[C@H]2CC[C@@]3(O)C4=CC(=O)[C@@H]5C[C@@H](O)[C@@H](O)C[C@]5(C)[C@H]4CC[C@]23C)O1 [Compound 13, shidasterone] | 2.51e-06 | – | – | – | agonistic activity in reporter gene assay at 1 μM (EcR): did not activate the reporter gene; agonist/antagonist classification (EcR): ecdysteroid antagonists
12 | CC(C)CC[C@@H](O)[C@](C)(O)[C@H]1CC[C@@]2(O)C3=CC(=O)[C@@H]4C[C@@H](O)[C@@H](O)C[C@]4(C)[C@H]3[C@H](O)C[C@]12C [Compound 14, ajugasterone C] | 6.46e-07 | – | – | agonists | –
13 | CC(C)(O)CC[C@@H](O)[C@](C)(O)[C@H]1CC[C@@]2(O)C3=CC(=O)[C@H]4C[C@@H](O)C[C@@H](O)[C@]4(C)[C@H]3CC[C@]12C [Compound 15, 5α-2-deoxyintegristerone A] | > 2.51e-05 | 2.42 | very weak activity | – | –
14 | C/C(=N\O)[C@H]1CC[C@@]2(O)C3=CC(=O)[C@@H]4C[C@@H](O)[C@@H](O)C[C@]4(C)[C@H]3CC[C@]12C [Compound 16, poststerone 20(E)-oxime] | > 2.51e-05 | 4.3 | – | – | –
15 | CC(C)(O)CC[C@@H](O)[C@](C)(O)[C@H]1CC[C@@]2(O)C3=C/C(=N/O)[C@@H]4C[C@@H](O)[C@@H](O)C[C@]4(C)[C@H]3CC[C@]12C [Compound 17, 20-hydroxyecdysone 6(Z)-oxime] | > 2.51e-05 | 4.53 | – | – | –
16 | CC(C)(O)CC[C@@H](O)[C@](C)(O)[C@H]1CC[C@@]2(O)C3=C/C(=N\O)[C@@H]4C[C@@H](O)[C@@H](O)C[C@]4(C)[C@H]3CC[C@]12C [Compound 18, 20-hydroxyecdysone 6(E)-oxime] | ~2.51e-05 | 60.1 | – | – | –
17 | CCC1(CC)O[C@H]2C[C@@]3(C)[C@@H](C[C@H]2O1)C(=O)C=C1[C@@H]3CC[C@]2(C)[C@@H]([C@@](C)(O)[C@H](O)CCC(C)(C)O)CC[C@@]12O [Compound 19, 28,28-diethyl-2,3-methylidene-20-hydroxyecdysone] | 3.02e-06 | – | – | – | agonistic activity in reporter gene assay at 1 μM (EcR): did not activate the reporter gene; agonist/antagonist classification (EcR): ecdysteroid antagonists
18 | CC(C)(O)CC[C@@H](O)[C@](C)(O)[C@H]1CC[C@@]2(O)C3=CC(=O)[C@@H]4C[C@@H](O)[C@@H](O)C[C@]4(C)[C@@]3(O)CC[C@]12C [Compound 20, 9α,20-dihydroxyecdysone] | > 2.51e-05 | 45.7 | – | – | –
19 | CC(C)(O)CC[C@@H](O)[C@](C)(O)[C@H]1CC[C@@]2(O)C3=CC(=O)[C@H]4C[C@@H](O)[C@@H](O)C[C@]4(C)[C@@]3(O)CC[C@]12C [Compound 21, 5α-9α,20-dihydroxyecdysone] | > 2.51e-05 | 27.1 | very weak activity | – | –
20 | CC(C)CC[C@@H](O)[C@](C)(O)[C@H]1CC[C@@]2(O)C3=CC(=O)[C@@H]4C[C@@H](O)[C@@H](O)C[C@]4(C)[C@H]3CC[C@]12C [PonA, ponasterone A, reference compound] | 8.91e-09 | – | – | – | –
